{"source": "patent EP2535414B1", "about": "(priority 2003, dated 2005)", "key": {"[1]": {"molecular_target": "non-native GAT polypeptide 17-15H3 (SEQ ID NO:601), glyphosate-N-acetyltransferase (Bacillus licheniformis, UniProt Q65LG7)", "assay": "GAT activity with respect to glyphosate, aspartate and serine (Table 21), DTNB read-out", "type": "biochemical", "conditions": "AcCoA as acetyl donor, 25 mM Hepes, pH 6.8, 10% ethylene glycol", "experimental": "(§1) GAT activity of several GAT polypeptides of the disclosure was evaluated with respect to a number of amino acid substrates. The GAT polypeptide, AcCoA and amino substrate were incubated in 25 mM Hepes, pH 6.8, 10% ethylene glycol in the wells of a 96-well polystyrene plate. After 30 minutes, the reactions were stopped by the addition of 30 µl of 10 mM 5, 5'-dithiobis-2-nitrobenzoate (DTNB) in 500 mM Tris, pH 7.5. After 2 minutes, absorbance was read at 412 nm in a Spectramax Plus plate reader (Molecular Devices, Sunnyvale, CA).\n(§2) Activity with the other protein amino acids was either undetected or less than 3% that of GAT activity towards glyphosate as the substrate. […] The percentages refer to percent activity relative to activity of the GAT polypeptide towards the substrate, glyphosate. Some of the data is shown below in Table 21. Table 21: GAT activity with respect to Glyphosate, Aspartate and Serine"}, "[2]": {"molecular_target": "native GAT polypeptide 401 (SEQ ID NO:6), glyphosate-N-acetyltransferase (Bacillus licheniformis, UniProt Q65LG7)", "assay": "GAT activity with respect to glyphosate, aspartate and serine (Table 21), DTNB read-out", "type": "biochemical", "conditions": "AcCoA as acetyl donor, 25 mM Hepes, pH 6.8, 10% ethylene glycol", "experimental": "as §1, §2"}, "[3]": {"molecular_target": "non-native GAT polypeptide 25-8H7 (SEQ ID NO:907), glyphosate-N-acetyltransferase (Bacillus licheniformis, UniProt Q65LG7)", "assay": "GAT activity with respect to glyphosate, aspartate and serine (Table 21), DTNB read-out", "type": "biochemical", "conditions": "AcCoA as acetyl donor, 25 mM Hepes, pH 6.8, 10% ethylene glycol", "experimental": "as §1, §2"}, "[4]": {"molecular_target": "B. licheniformis strain B6 glyphosate-N-acetyltransferase (GAT), native, B6, SEQ ID NO:7 (Bacillus licheniformis, UniProt Q65LG7)", "assay": "Apparent KM for Acetyl CoA and kcat of purified GAT, mass spectrometric detection of N-acetyl glyphosate", "type": "biochemical"}, "[5]": {"tested_on": "CC(=O)SCCNC(=O)CCNC(=O)[C@H](O)C(C)(C)COP(=O)(O)OP(=O)(O)OC[C@H]1O[C@@H](n2cnc3c(N)ncnc32)[C@H](O)[C@@H]1OP(=O)(O)O", "assay": "purified protein, by the assay type", "conditions": "other: 5 mM glyphosate, 0.19 µM GAT, 5 mM morpholine pH 7.7, 50% methanol"}, "O=C(O)CNCP(=O)(O)O": {"tested_on": "O=C(O)CNCP(=O)(O)O", "assay": "Apparent KM for glyphosate of purified GAT, continuous spectrophotometric assay at 235 nm", "type": "biochemical, B. licheniformis", "conditions": "other: saturating (200 µM) Acetyl CoA, 1 µM purified GAT, 5 mM morpholine pH 7.7, 20 % ethylene glycol, 37.0 °C", "description": "Genomic DNA from B. licheniformis strain B6 was purified, partially digested with Sau3A1 and fragments of 1-10 Kb were cloned into an E. coli expression vector. A clone with a 2.5 kb insert conferred the glyphosate-N-acetyltransferase (GAT) activity on the E. coli host as determined with mass spectrometry analysis. […] Subsequent cloning of this open reading frame confirmed that it encoded the GAT enzyme. The gene encoding the GAT enzyme of B6 was transformed into E. coli strain XL1 Blue. A 10% innoculum of a saturated culture was added to Luria broth, and the culture was incubated at 37° C for 1 hr. Expression of GAT was induced by the addition of IPTG at a concentration of 1 mM. The culture was incubated a further 4 hrs, following which, cells were harvested by centrifugation and the cell pellet stored at -80°C.\nLysis of the cells was effected by the addition of 1 ml of the following buffer to 0.2 g of cells: 25 mM HEPES, pH 7.3, 100 mM KCl and 10% methanol (HKM) plus 0.1 mM EDTA, 1 mM DTT, 1 mg/ml chicken egg lysozyme, and a protease inhibitor cocktail obtained from Sigma and used according to the manufacturers recommendations. After 20 minutes incubation at room temperature (e.g., 22-25°C), lysis was completed with brief sonication. The lysate was centrifuged and the supernatant was desalted by passage through Sephadex G25 equilibrated with HKM. […]"}, "[6]": {"molecular_target": "GAT20-30C6 (SEQ ID NO:683) variant 20-30C6 H138R (Bacillus licheniformis, UniProt Q65LG7, form not given/H138R)", "assay": "GAT kinetics of active-site mutants, 0 KCl, Bradford protein assay (Table 12)", "type": "biochemical", "experimental": "(§3) KM was calculated from the initial reaction rates obtained from concentrations of glyphosate ranging from 0.125 to 10 mM, using the Lineweaver-Burke transformation of the Michaelis-Menten equation. kcat/KM was determined by dividing the value determined for kcat by the value determined for KM.\n(§4) The amino acids aspartic acid (Asp, D), histidine (His, H) and cysteine (Cys, C) are known to be associated with the active sites of various acetyltransferase enzymes. To determine if any such residues play a role in GAT activity, all D, C, and H residues of GAT20-30C6 (SEQ ID NO:683) were individually mutated to alanine (Ala, A) and the mutated enzymes assayed for N-acetylglyphosate activity. […]"}, "[7]": {"tested_on": "GAT20-30C6 (SEQ ID NO:683) variant 20-30C6 H138A", "assay": "GAT kinetics of active-site mutants, 0 KCl, Bradford protein assay (Table 12)", "type": "biochemical", "experimental": "as §3, §4"}, "[8]": {"molecular_target": "GAT20-30C6 (SEQ ID NO:683), evolved glyphosate-N-acetyltransferase, unmodified (Bacillus licheniformis, UniProt Q65LG7)", "assay": "GAT kinetics of active-site mutants, 0 KCl, Bradford protein assay (Table 12)", "type": "biochemical", "experimental": "as §3, §4"}, "[9]": {"molecular_target": "GAT20-30C6 (SEQ ID NO:683) variant 20-30C6 H138S (Bacillus licheniformis, UniProt Q65LG7, form not given/H138S)", "assay": "GAT kinetics of active-site mutants, 0 KCl, Bradford protein assay (Table 12)", "type": "biochemical", "experimental": "as §3, §4"}, "[10]": {"molecular_target": "GAT20-30C6 (SEQ ID NO:683) variant 20-30C6 H41A (Bacillus licheniformis, UniProt Q65LG7, form not given/H41A)", "assay": "GAT kinetics of active-site mutants, 0 KCl, Bradford protein assay (Table 12)", "type": "biochemical", "experimental": "as §3, §4"}}, "data": [{"compound": "N[C@@H](CO)C(=O)O", "note": "[Serine, L-serine]", "values": [{"measurement": "kcat±SE", "setting": "[1]", "value": "242 + 15.8 min^-1"}, {"measurement": "kcat±SE", "setting": "[2]", "value": 14.2, "unit": "s⁻¹"}, {"measurement": "kcat±SE", "setting": "[3]", "value": "6.47 ± 0.308", "unit": "s⁻¹"}]}, {"compound": "CC(=O)SCCNC(=O)CCNC(=O)[C@H](O)C(C)(C)COP(=O)(O)OP(=O)(O)OC[C@H]1O[C@@H](n2cnc3c(N)ncnc32)[C@H](O)[C@@H]1OP(=O)(O)O", "note": "[Acetyl CoA]", "values": [{"measurement": "Km", "setting": "[4]; read-out: apparent KM for Acetyl CoA, 5 mM glyphosate, 0.19 µM GAT, 5 mM morpholine pH 7.7, 50% methanol", "value": "~2", "unit": "µM"}]}, {"compound": "B. licheniformis strain B6 glyphosate-N-acetyltransferase (GAT), native, B6, SEQ ID NO:7 (Bacillus licheniformis DSM 13 = ATCC 14580)", "values": [{"measurement": "Km", "setting": "[5]", "value": 2, "unit": "µM"}, {"measurement": "Km", "setting": "O=C(O)CNCP(=O)(O)O", "value": "2900 ± 200", "unit": "µM"}, {"measurement": "kcat", "setting": "O=C(O)CNCP(=O)(O)O", "value": 0.1, "unit": "s⁻¹"}]}, {"compound": "O=C(O)CNCP(=O)(O)O", "note": "[glyphosate, N-phosphonomethylglycine]", "values": [{"measurement": "kcat", "setting": "[6]", "value": 0.738, "unit": "s⁻¹"}, {"measurement": "kcat", "setting": "[7]", "value": "< 0.00033", "unit": "s⁻¹"}, {"measurement": "kcat", "setting": "[8]", "value": 6.43, "unit": "s⁻¹"}, {"measurement": "kcat", "setting": "[9]", "value": 0.0892, "unit": "s⁻¹"}, {"measurement": "kcat", "setting": "[10]", "value": 3.47, "unit": "s⁻¹"}, {"measurement": "kcat±SE", "setting": "[1]", "value": "1150 ± 27.6", "unit": "min⁻¹"}, {"measurement": "kcat±SE", "setting": "[2]", "value": "0.0892 ± 0.000717", "unit": "s⁻¹"}, {"measurement": "kcat±SE", "setting": "[3]", "value": "24.67 ± 1.09", "unit": "s⁻¹"}, {"measurement": "kcat", "setting": "[4]; calculated from Vmax at a known concentration of enzyme, acetylation of glyphosate by Acetyl CoA", "value": 0.1, "unit": "s⁻¹"}]}]}
